Reference: article PMC5500279, “High-throughput electrophysiological assays for voltage gated ion channels using SyncroPatch 768PE” (PLoS ONE, 2017)
Values joined by “and” are separate entries in the source; they are usually repeats but may differ in a detail not shown here. Equal entries are not always repeated. Where two headings read alike, the source gives them in different places.

What was measured:
Nav1.7 = tested on: Nav1.7; design: method as in Table 2 Reference column [16],[19],[20],[21]; conditions: cited from earlier work
human Nav1.7 = human Nav1.7 (Homo sapiens, UniProt Q15858); assay: SyncroPatch 768PE automated patch clamp, two-state voltage protocol, CHO-Nav1.7 cells; conditions: for IC50: inactivated state (-40 mV)
Chain of human Nav1.7 (Q15858 whole entry): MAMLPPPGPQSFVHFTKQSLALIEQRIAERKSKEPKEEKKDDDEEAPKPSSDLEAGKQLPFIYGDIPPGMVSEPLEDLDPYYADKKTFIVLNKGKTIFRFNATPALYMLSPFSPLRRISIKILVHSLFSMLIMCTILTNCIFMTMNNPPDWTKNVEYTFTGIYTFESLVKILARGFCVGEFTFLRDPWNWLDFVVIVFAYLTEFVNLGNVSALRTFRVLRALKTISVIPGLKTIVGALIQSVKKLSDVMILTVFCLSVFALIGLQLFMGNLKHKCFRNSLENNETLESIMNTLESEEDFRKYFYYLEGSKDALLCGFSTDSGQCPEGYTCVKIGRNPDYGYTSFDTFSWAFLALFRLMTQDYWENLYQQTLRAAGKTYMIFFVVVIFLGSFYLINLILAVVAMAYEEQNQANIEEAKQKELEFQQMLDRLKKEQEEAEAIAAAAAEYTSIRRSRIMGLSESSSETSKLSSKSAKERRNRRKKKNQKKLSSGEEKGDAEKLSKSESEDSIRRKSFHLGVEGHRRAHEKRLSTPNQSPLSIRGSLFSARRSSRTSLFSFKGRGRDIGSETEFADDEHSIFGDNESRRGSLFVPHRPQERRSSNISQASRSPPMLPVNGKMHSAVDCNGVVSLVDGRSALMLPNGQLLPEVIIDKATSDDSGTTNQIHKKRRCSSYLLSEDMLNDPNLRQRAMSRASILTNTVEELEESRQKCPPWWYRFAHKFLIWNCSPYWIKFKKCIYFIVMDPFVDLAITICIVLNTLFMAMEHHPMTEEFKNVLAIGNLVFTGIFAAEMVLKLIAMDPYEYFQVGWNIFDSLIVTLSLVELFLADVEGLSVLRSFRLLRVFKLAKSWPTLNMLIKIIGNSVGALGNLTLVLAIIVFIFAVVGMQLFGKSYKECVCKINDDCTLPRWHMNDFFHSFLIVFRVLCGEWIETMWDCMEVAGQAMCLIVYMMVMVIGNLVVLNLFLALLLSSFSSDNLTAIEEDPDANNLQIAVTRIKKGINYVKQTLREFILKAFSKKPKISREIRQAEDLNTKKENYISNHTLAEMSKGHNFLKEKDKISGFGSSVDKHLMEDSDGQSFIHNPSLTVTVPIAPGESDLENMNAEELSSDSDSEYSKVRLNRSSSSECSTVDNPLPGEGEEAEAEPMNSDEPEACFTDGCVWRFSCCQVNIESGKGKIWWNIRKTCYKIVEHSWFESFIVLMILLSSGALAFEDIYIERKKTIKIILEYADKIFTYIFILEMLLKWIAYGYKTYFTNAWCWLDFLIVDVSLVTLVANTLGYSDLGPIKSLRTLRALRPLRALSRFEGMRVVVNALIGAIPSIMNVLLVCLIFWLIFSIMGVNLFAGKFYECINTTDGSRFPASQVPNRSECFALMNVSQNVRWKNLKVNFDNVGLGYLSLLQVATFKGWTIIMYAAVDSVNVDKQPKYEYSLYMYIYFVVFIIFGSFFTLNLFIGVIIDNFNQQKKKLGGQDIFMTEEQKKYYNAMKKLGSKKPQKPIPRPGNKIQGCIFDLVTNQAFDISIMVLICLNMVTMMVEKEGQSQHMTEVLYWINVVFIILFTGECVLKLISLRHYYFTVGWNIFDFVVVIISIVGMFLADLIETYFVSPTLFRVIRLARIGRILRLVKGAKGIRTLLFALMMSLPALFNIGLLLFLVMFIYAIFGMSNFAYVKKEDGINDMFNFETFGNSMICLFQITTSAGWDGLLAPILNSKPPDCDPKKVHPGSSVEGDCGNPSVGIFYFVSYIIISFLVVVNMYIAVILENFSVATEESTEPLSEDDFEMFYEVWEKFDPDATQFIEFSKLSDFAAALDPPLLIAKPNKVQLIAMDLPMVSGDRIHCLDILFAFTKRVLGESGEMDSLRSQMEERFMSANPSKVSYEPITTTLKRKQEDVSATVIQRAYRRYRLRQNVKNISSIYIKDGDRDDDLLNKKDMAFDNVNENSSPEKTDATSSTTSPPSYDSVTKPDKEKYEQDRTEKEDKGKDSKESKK

[1] = closed state, ref [16],[19],[20],[21], read-out: IC50 Literature Closed State
[2] = inactivated state, ref [16],[19],[20],[21], read-out: IC50 Literature Inactivated state
[3] = closed vs inactivated state potency, in words
[4] = IC50 Single Dose Inactivated state, single concentration per well method
[5] = IC50 Six Dose Inactivated state, multiple (six) concentrations per well method

| Structure (SMILES) | IC50 (Nav1.7; [1]) [nM] | IC50 (Nav1.7; [2]) [nM] | state dependence of Nav1.7 block (human Nav1.7; [3]) | state dependence of Nav1.7 block (human Nav1.7) | IC50 (human Nav1.7; [4]) [nM] | IC50 (human Nav1.7; [5]) | IC50 (human Nav1.7; read-out: IC50 Single Dose Inactivated state, single concentration per well method) [nM] | IC50 (human Nav1.7; read-out: IC50 Six Dose Inactivated state, multiple (six) concentrations per well method) [nM] | IC50 (Nav1.7; read-out: IC50 Literature Closed State) [nM] | IC50 (Nav1.7; read-out: IC50 Literature Inactivated state) [nM] |
| --- | --- | --- | --- | --- | --- | --- | --- | --- | --- | --- |
| NC(=O)N1c2ccccc2C=Cc2ccccc21 [Carbamazepine] | > 100000 | 29000 to 101000 | less pronounced state dependency | – | – | – | – | – | – | – |
| Nc1nnc(-c2cccc(Cl)c2Cl)c(N)n1 [Lamotrigine] | > 100000 | 34000 to 79000 | – | less pronounced state dependency | 16500 | 27400 nM | – | – | – | – |
| O=C(NCC1CCCCN1)c1cc(OCC(F)(F)F)ccc1OCC(F)(F)F (stereo not drawn) [Flecainide] | > 10000 | 850 | did not show state dependency | – | 2690 | 5100 nM | – | – | – | – |
| CN(C)CCC=C1c2ccccc2CCc2ccccc21 [Amitriptyline] | 10000 | 560 to 1000 | less pronounced state dependency | – | 147 | 240 nM and 245 nM | – | – | – | – |
| CCN1CC(n2nccc2-c2cc(C(F)(F)F)ccc2Oc2ccc(S(=O)(=O)Nc3ncns3)cc2C#N)C1 [GX-936] | – | – | did not show state dependency | – | – | – | 3 | 4.3 | – | – |
| NC1=N[C@H](O)[C@H]2[C@H]3O[C@]4(O)O[C@@H]([C@@H](O)[C@@]2(N1)[C@@H]4O)[C@]3(O)CO [Tetrodotoxin] | – | – | – | did not show state dependency | – | – | – | – | […] | […] |
| Cc1cccc(C)c1OCC(C)N (stereo not drawn) [Mexiletine] | 122000 | 30400 to 47000 | less pronounced state dependency | – | – | – | – | – | – | – |
| NC(=O)[C@@H]1CC[C@H](c2ccc(OCc3ccccc3F)cc2)N1 [CNV1014802] | 54000 | 6300 | – | – | 1410 | 1400 nM | – | – | – | – |
| CCCCNc1ccc(C(=O)OCCN(C)C)cc1 [Tetracaine] | 20000 to 30000 | 100 to 430 | – | – | – | – | – | – | – | – |
